Data reported in US8569302B2, “Inhibitors of flaviviridae viruses” (Gilead Sciences, Inc., priority 2009, dated 2013).

System: human hepatoma Huh-7 cell line harboring a HCV replicon
Experiment: HCV replicon assay (inhibition of viral replication, luciferase readout)
Assay type: cell-based
Conditions: Hepatitis C virus, 72 h, Huh-7 HCV replicon cells, 3 days incubation
In short: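 Read-outs: luciferase luminescence for replication inhibition, corrected by ITMN-191 (100% inhibition) wells, and calcein AM fluorescence for cytotoxicity. Cells were treated for 3 days at 37 °C with ten 3-fold compound dilutions in 0.44% final DMSO. Percent inhibition relative to DMSO was fitted with a Hill equation to give EC50 and CC50.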

**Q.** For `CC1=CCC(C(=O)N(c2cc(C#CC(C)(C)C)sc2C(=O)O)[C@H]2CC[C@H](O[C@H]3CCOC3)CC2)[C@H](C)C1` (stereo partly drawn) [Compound 304, 5-(3,3-dimethyl-but-1-ynyl)-3-{(4,6R-dimethyl-cyclohex-3-enecarbonyl)-[4-(tetrahydro-furan-3S-yloxy)-trans-cyclohexyl]-amino}-thiophene-2-carboxylic acid], which inhibition at 2 µM is on record?
**A.** Its inhibition at 2 µM is 100%.

**Q.** Which inhibition at 2 µM does the source give for `C[C@@H]1CC[C@@H](C(=O)N(c2cc(C#CC(C)(C)C)sc2C(=O)O)[C@H]2CC[C@H](O[C@H]3CCOC3)CC2)[C@@H](O)C1` [Compound 309, 5-(3,3-dimethylbut-1-ynyl)-3-((1R,2S,4R)-2-hydroxy-4-methyl-N-(4-(tetrahydrofuran-3S-yloxy)cyclohexyl)cyclohexanecarboxamido)thiophene-2-carboxylic acid] here?
**A.** The inhibition at 2 µM was 100%.

**Q.** For `C[C@@H]1CC[C@@H](C(=O)N(c2cc(C#CC(C)(C)C)sc2C(=O)O)[C@H]2CC[C@H](O[C@@H]3CCOC3)CC2)[C@@H](O)C1` [Compound 310, 5-(3,3-dimethylbut-1-ynyl)-3-((1R,2S,4R)-2-hydroxy-4-methyl-N-(4-(tetrahydrofuran-3R-yloxy)cyclohexyl)cyclohexanecarboxamido)thiophene-2-carboxylic acid], which inhibition at 2 µM is on record?
**A.** The inhibition at 2 µM was 100%.

**Q.** With `CC1CCC(C(=O)N(c2cc(C#CC(C)(C)COC3CCCCO3)sc2C(=O)O)C2CCC(Oc3ccccn3)CC2)CC1` (stereo not drawn) [Compound 311, 5-[3,3-Dimethyl-4-(tetrahydro-pyran-2-yloxy)-but-1-ynyl]-3-{(4-methyl-cyclohexanecarbonyl)-[4-(pyridin-2-yloxy)-cyclohexyl]-amino}-thiophene-2-carboxylic acid] as the compound, how does the inhibition at 2 µM read?
**A.** Its inhibition at 2 µM is 95.2%.

**Q.** For `CC(C)(C#Cc1cc(N(C(=O)[C@H]2CC[C@H](C)CC2)[C@H]2CC[C@H](OC3CCOC3)CC2)c(C(=O)O)s1)CCO` (stereo partly drawn) [Compound 314, 5-(5-Hydroxy-3,3-dimethyl-pent-1-ynyl)-3-{(4-methyl-cyclohexanecarbonyl)-[4-(tetrahydro-furan-3-yloxy)-cyclohexyl]-amino}-thiophene-2-carboxylic acid], which inhibition at 2 µM is on record?
**A.** The inhibition at 2 µM was 99.9%.

**Q.** Which inhibition at 2 µM does the source give for `CC(C)(C)C#Cc1cc(N(C(=O)[C@H]2CC[C@H](C)CC2)[C@H]2CC[C@H](O[C@H]3COC[C@H]3O)CC2)c(C(=O)O)s1` [Compound 317, 5-(3,3-dimethyl-but-1-ynyl)-3-[[4-(4-cis-hydroxy-tetrahydro-furan-3-yloxy)-cyclohexyl]-(4-methyl-cyclohexanecarbonyl)-amino]-thiophene-2-carboxylic acid] here?
**A.** The inhibition at 2 µM was 100%.

**Q.** For `CC(C)(C)C#Cc1cc(N(C(=O)[C@H]2CC[C@H](C)CC2)[C@H]2CC[C@H](O[C@H]3COC[C@@H]3O)CC2)c(C(=O)O)s1` [Compound 318, 5-(3,3-Dimethyl-but-1-ynyl)-3-[[4-(4-trans-hydroxy-tetrahydro-furan-3-yloxy)-cyclohexyl]-(4-methyl-cyclohexanecarbonyl)-amino]-thiophene-2-carboxylic acid], which inhibition at 2 µM is on record?
**A.** Its inhibition at 2 µM is 99.7%.

**Q.** For `CC1CCC(C(=O)N(c2cc(C#CC(C)(C)C)sc2C(=O)O)[C@H]2CCN(CCOc3ccccn3)C2)CC1` (stereo partly drawn) [Compound 321], which inhibition at 2 µM is on record?
**A.** Its inhibition at 2 µM is 99.9%.

**Q.** With `CC(C)(C)C#Cc1cc(N(C(=O)[C@H]2CC[C@H](C)CC2)[C@H]2CC[C@H](O[C@@H]3CCOC3)CC2)c(C(=O)O)s1` [Compound 322] as the compound, how does the inhibition at 2 µM read?
**A.** Its inhibition at 2 µM is 100%.

**Q.** For `C=C1CCC(C(=O)N(c2cc(C#CC(C)(C)C)sc2C(=O)O)[C@H]2CC[C@H](Oc3cc(CN(C)C)ccn3)CC2)CC1` [Compound 325, 3-[[4-(4-dimethylaminomethyl-pyridin-2-yloxy)-cyclohexyl]-(4-methylene-cyclohexanecarbonyl)-amino]-5-(3,3-dimethyl-but-1-ynyl)-thiophene-2-carboxylic acid], which inhibition at 2 µM is on record?
**A.** Its inhibition at 2 µM is 100%.

**Q.** `CC(C)(C)C#Cc1cc(N(C(=O)[C@H]2CC[C@H](C)CC2)[C@H]2CC[C@H](Oc3nccc(=O)[nH]3)CC2)c(C(=O)O)s1` [Compound 326, 5-(3,3-Dimethyl-but-1-ynyl)-3-{(4-methyl-cyclohexanecarbonyl)-[4-(6-oxo-1,6-dihydro-pyrimidin-2-yloxy)-cyclohexyl]-amino}-thiophene-2-carboxylic acid] was tested. Which inhibition at 2 µM did it give?
**A.** The inhibition at 2 µM was 99.9%.

**Q.** Which inhibition at 2 µM does the source give for `CC(C)(C)C#Cc1cc(N(C(=O)[C@H]2CC[C@H](C)CC2)[C@H]2CC[C@H](O[C@H]3CCOC3)CC2)c(C(=O)O)s1` [Compound 331, 5-(3,3-Dimethyl-but-1-ynyl)-3-{(trans-4-methyl-cyclohexanecarbonyl)-[4-(tetrahydro-furan-3(S)-yloxy)-trans-cyclohexyl]-amino}-thiophene-2-carboxylic acid] here?
**A.** The inhibition at 2 µM was 100%.

**Q.** `CC(C)(C)C#Cc1cc(N(C(=O)[C@H]2CC[C@H](C)CC2)[C@H]2CC[C@@H](O[C@H]3CCOC3)CC2)c(C(=O)O)s1` [Compound 332, 5-(3,3-Dimethyl-but-1-ynyl)-3-{(trans-4-methyl-cyclohexanecarbonyl)-[4-(tetrahydro-furan-3(S)-yloxy)-cis-cyclohexyl]-amino}-thiophene-2-carboxylic acid] was tested. Which inhibition at 2 µM did it give?
**A.** The inhibition at 2 µM was 99.9%.

**Q.** For `CC1=CC[C@@H](C(=O)N(c2cc(C#CC(C)(C)C)sc2C(=O)O)[C@H]2CC[C@H](O[C@H]3CCOC3)CC2)CC1` [Compound 333], which inhibition at 2 µM is on record?
**A.** Its inhibition at 2 µM is 100%.

**Q.** Which inhibition at 2 µM does the source give for `CC1=CC[C@@H](C(=O)N(c2cc(C#CC(C)(C)C)sc2C(=O)O)[C@H]2CC[C@H](OC3CCOC3)CC2)CC1` (stereo partly drawn) [Compound 334] here?
**A.** Its inhibition at 2 µM is 99.9%.

**Q.** With `CC1=CC[C@H](C(=O)N(c2cc(C#CC(C)(C)C)sc2C(=O)O)[C@H]2CC[C@H](OC3CCOC3)CC2)CC1` (stereo partly drawn) [Compound 335] as the compound, how does the inhibition at 2 µM read?
**A.** Its inhibition at 2 µM is 99.9%.

**Q.** Which inhibition at 2 µM does the source give for `CC1=CC[C@H](C(=O)N(c2cc(C#CC(C)(C)C)sc2C(=O)O)[C@H]2CC[C@H](O[C@H]3CCOC3)CC2)CC1` [Compound 336] here?
**A.** The inhibition at 2 µM was 100%.

**Q.** For `CC1=CC[C@@H](C(=O)N(c2cc(C#CC(C)(C)C)sc2C(=O)O)[C@H]2CC[C@H](Oc3cc(CN(C)C)ccn3)CC2)CC1` [Compound 337, 3-[[4-(4-Dimethylaminomethyl-pyridin-2-yloxy)-trans-cyclohexyl]-(4-methyl-cyclohex-3-enecarbonyl)-amino]-5-(3,3-dimethyl-but-1-ynyl)-thiophene-2-carboxylic acid], which inhibition at 2 µM is on record?
**A.** The inhibition at 2 µM was 100%.

**Q.** How did the inhibition at 2 µM turn out when `CN(C)Cc1ccnc(O[C@H]2CC[C@H](N(c3cc(C#CC4(C(F)(F)F)CCC4)sc3C(=O)O)C(=O)[C@H]3CC[C@H](C)CC3)CC2)c1` [Compound 338, 3-((1r,4R)—N-((1r,4R)-4-(4-((dimethylamino)methyl)pyridin-2-yloxy)cyclohexyl)-4-methylcyclohexanecarboxamido)-5-((1-(trifluoromethyl)cyclobutyl)ethynyl)thiophene-2-carboxylic acid] was run?
**A.** Its inhibition at 2 µM is 99.9%.

**Q.** Which inhibition at 2 µM does the source give for `C[C@H]1CC[C@H](C(=O)N(c2cc(C#CC3(C(F)(F)F)CCC3)sc2C(=O)O)[C@H]2CC[C@H](Oc3ccc(O)nn3)CC2)CC1` [Compound 339, 3-((1r,4R)—N-((1r,4R)-4-(6-hydroxypyridazin-3-yloxy)cyclohexyl)-4-methylcyclohexanecarboxamido)-5-((1-(trifluoromethyl)cyclobutyl)ethynyl)thiophene-2-carboxylic acid] here?
**A.** Its inhibition at 2 µM is 99.9%.

**Q.** How did the inhibition at 2 µM turn out when `CN(C)Cc1ccnc(O[C@H]2CC[C@H](N(c3cc(C#CC4(C(F)(F)F)CC4)sc3C(=O)O)C(=O)[C@H]3CC[C@H](C)CC3)CC2)c1` [Compound 340, 3-((1r,4R)—N-((1r,4R)-4-(4-((dimethylamino)methyl)pyridin-2-yloxy)cyclohexyl)-4-methylcyclohexanecarboxamido)-5-((1-(trifluoromethyl)cyclopropyl)ethynyl)thiophene-2-carboxylic acid] was run?
**A.** The inhibition at 2 µM was 100%.

**Q.** How did the inhibition at 2 µM turn out when `CN(C)Cc1ccnc(O[C@H]2CC[C@H](N(c3cc(C#CC(C)(C)C(F)(F)F)sc3C(=O)O)C(=O)[C@H]3CC[C@H](C)CC3)CC2)c1` [Compound 341, 3-((1r,4R)—N-((1r,4R)-4-(4-((dimethylamino)methyl)pyridin-2-yloxy)cyclohexyl)-4-methylcyclohexanecarboxamido)-5-(4,4,4-trifluoro-3,3-dimethylbut-1-ynyl)thiophene-2-carboxylic acid] was run?
**A.** The inhibition at 2 µM was 100%.

**Q.** With `C[C@H]1CC[C@H](C(=O)N(c2cc(C#CC3(C(F)(F)F)CC3)sc2C(=O)O)[C@H]2CC[C@H](Oc3ccc(O)nn3)CC2)CC1` [Compound 342, 3-((1r,4R)—N-((1r,4R)-4-(6-hydroxypyridazin-3-yloxy)cyclohexyl)-4-methylcyclohexanecarboxamido)-5-((1-(trifluoromethyl)cyclopropyl)ethynyl)thiophene-2-carboxylic acid] as the compound, how does the inhibition at 2 µM read?
**A.** Its inhibition at 2 µM is 100%.

**Q.** Which inhibition at 2 µM does the source give for `CC(C)(C#Cc1cc(N(C(=O)[C@H]2CC[C@H](C)CC2)[C@H]2CC[C@H](Oc3ccc(O)nn3)CC2)c(C(=O)O)s1)C(F)(F)F` [Compound 343, 3-((1r,4R)—N-((1r,4R)-4-(6-hydroxypyridazin-3-yloxy)cyclohexyl)-4-methylcyclohexanecarboxamido)-5-(4,4,4-trifluoro-3,3-dimethylbut-1-ynyl)thiophene-2-carboxylic acid] here?
**A.** The inhibition at 2 µM was 100%.

**Q.** Which inhibition at 2 µM does the source give for `C[C@H]1CC[C@H](C(=O)N(c2cc(C#CC3(C(F)(F)F)CC3)sc2C(=O)O)[C@H]2CC[C@H](Oc3ccncn3)CC2)CC1` [Compound 344, 3-((1r,4R)-4-methyl-N-((1r,4R)-4-(pyrimidin-4-yloxy)cyclohexyl)cyclohexanecarboxamido)-5-(2-(1-(trifluoromethyl)cyclopropyl)ethynyl)thiophene-2-carboxylic acid] here?
**A.** Its inhibition at 2 µM is 99.8%.

**Q.** With `C[C@H]1CC[C@H](C(=O)N(c2cc(C#CC3(C(F)(F)F)CC3)sc2C(=O)O)[C@H]2CC[C@H](OC3CCOC3)CC2)CC1` (stereo partly drawn) [Compound 345, 3-((1r,4R)-4-methyl-N-((1r,4R)-4-(tetrahydrofuran-3-yloxy)cyclohexyl)cyclohexanecarboxamido)-5-(2-(1-(trifluoromethyl)cyclopropyl)ethynyl)thiophene-2-carboxylic acid] as the compound, how does the inhibition at 2 µM read?
**A.** Its inhibition at 2 µM is 100%.

**Q.** For `C[C@H]1CC[C@H](C(=O)N(c2cc(C#CC3(C(F)(F)F)CC3)sc2C(=O)O)[C@H]2CC[C@@H](OC3CCOC3)CC2)CC1` (stereo partly drawn) [Compound 346, 3-((1r,4R)-4-methyl-N-((1s,4S)-4-(tetrahydrofuran-3-yloxy)cyclohexyl)cyclohexanecarboxamido)-5-(2-(1-(trifluoromethyl)cyclopropyl)ethynyl)thiophene-2-carboxylic acid], which inhibition at 2 µM is on record?
**A.** Its inhibition at 2 µM is 99.5%.
